Measurements reported in patent US20130252956A1, “METHODS OF TREATING CANCER” (priority 2010, published 2013).

Experiments:
[1] = Phase I dose escalation/expanded cohort study of oral foretinib in HCC patients: safety, dose-limiting toxicities, maximum tolerated dose; conditions: human, in vivo
Description: Each treatment cycle will consist of 21 consecutive days. Subjects enrolled in this study will receive oral foretinib administered once daily. Blood samples for PK analysis will be obtained before and after dosing on Days 1 and 15 of Treatment Period 1 in both the Dose-Escalation and Expanded Cohort Phases. For subjects in the Expanded Cohort Phase, no dose will be administered on Days 2 and 3 of Treatment Period 1 to allow the pharmacokinetics of foretinib to be assessed over a 72 hour interval after the first dose. Subjects will continue to receive study drug until disease progression or withdrawal from study because of unacceptable toxicity or other reasons (e.g., withdrawal of consent, noncompliance). Disease progression is defined as objective disease progression according to mRECIST and/or clinical progression (e.g. emergence of significant new disease-related symptoms and/or significant deterioration of pre-existing disease-related symptoms requiring treatment; or deterioration of ECOG performance status by 2 units—see Appendix 3). For the purpose of the final analysis, the duration of the study is planned to be 2 years after enrollment is completed.
Patients with measurable unresectable/metastatic HCC, no prior sorafenib or other multi-kinase inhibitors, ECOG PS 0-1, adequate organ function and Child-Pugh grade A are eligible for enrolment. […]

[2] = test system: unresectable/metastatic HCC; assay: Antitumour activity (time to progression by modified RECIST) in patients dosed at the maximum tolerated dose; assay type: in vivo, human; conditions: 38 evaluable patients at the maximum tolerated dose (30 mg OD); 95% confidence intervals (2.8, not achieved)
Excerpt: To enable a more accurate description of the potential clinical benefit of foretinib in patients with HCC, the method of tumor evaluation was changed to incorporate the mRECIST criteria for HCC as proposed by Llovet et al (Llovet, et al. 2008 supra) and further described by Lencioni & Llovet (Lencioni & Llovet Modified RECIST (mRECIST) Assessment for Hepatocellular Carcinoma. Seminars in Liver Disease. 2010; 30:52-60) in addition to the standard RECIST assessment.
The primary endpoint for assessing antitumor activity will be response rate (CR+PR) according to mRECIST (Lencioni, 2010), assessed by independent, central, radiological review, in subjects with advanced (unresectable and/or metastatic) HCC treated with foretinib at the maximum tolerated dose. […]
Tumor response for subjects with measurable lesions should be assessed routinely as specified in the table below. Serial CT-scans (preferred) or MRI will be evaluated for response (CR or PR) and SD according to mRECIST (Lecioni, 2010) and RECIST 1.0 (Therasse, et al. New guidelines to evaluate the response to treatment in solid tumors. European Organization for Research and Treatment of Cancer, National Cancer Institute of the United States, National Cancer Institute of Canada. J Natl Cancer Inst. 2000; 92:205-16.). […]

first-line advanced HCC = first-line advanced HCC patients treated with sorafenib; 95% CI (2.6, 3.6); cited from earlier work

Compound	Dose-limiting toxicities [1]	Dose-limiting toxicities (renal failure, proteinuria), patients affected [1]	Median time-to-progression using modified-RECIST [2] [months]	Median time to progression (first-line advanced HCC) [months]
COc1cc2c(Oc3ccc(NC(=O)C4(C(=O)Nc5ccc(F)cc5)CC4)cc3F)ccnc2cc1OCCCN1CCOCC1 [foretinib, N^1-{3-fluoro-4-[(6-(methyloxy)-7-{[3-(4-morpholinyl)propyl]oxy}-4-quinolinyl)oxy]phenyl}-N^1-(4-fluorophenyl)-1,1-cyclopropanedicarboxamide]	no dose limiting toxicities were observed	2/6	4.5	
CNC(=O)c1cc(Oc2ccc(NC(=O)Nc3ccc(Cl)c(C(F)(F)F)c3)cc2)ccn1 [sorafenib, 4-[4-[[4-chloro-3-(trifluoromethyl)phenyl]carbamoylamino]phenoxy]-N-methyl-pyridine-2-carboxamide]				2.8
